Source: US9119816B2, “Method for prevention or treatment of diabetic angiogenesis impairment using C-peptide” (KANGWON NATIONAL UNIVERSITY UNIVERSITY-INDUSTRY COOPERATION …, priority 2012, dated 2015)
Entries after “also recorded” stand apart in the source; their conditions may differ.

How the values were obtained:
HUVECs [1] = test: Inhibition of C-peptide-induced tube formation by HUVECs; format: cell-based, human; settings: 0.5 nM C-peptide, 24-30 h
Procedure: (§1) FIG. 4A is a graph in which tube formation is quantified by confocal microscopy and results are represented as mean±S.D. from three independent experiments after HUVECs were seeded onto a Matrigel layer and incubated for 24-30 h with 0.5 nM C-peptide (C-pep) in the presence of the indicated concentrations of L-NAME, PD98058, and wortmannin, and
(§2) The formation of capillary-like networks by HUVECs on growth factor-reduced Matrigel (BD Biosciences, Franklin Lakes, N.J.) was achieved using a method known in the art. Briefly, 24-well culture plates were coated with Matrigel according to the manufacturer's instructions. HUVECs were seeded onto a layer of Matrigel at a density of 4×10^5 cells/well, and treated with VEGF or C-peptide at 37° C. for 24 to 30 h. The degree of tube formation was quantified by measuring the length of tubes from the images using the FV-300 software.
(§3) The roles of ERK1/2, PI3K/Akt, and NO in C-peptide-induced angiogenesis were examined using PD98059, wortmannin, and L-NG-nitroarginine methyl ester (L-NAME), respectively.

HUVECs [2] = test: Inhibition of VEGF-induced tube formation by HUVECs; format: cell-based, human; settings: 10 ng/ml VEGF, 24-30 h
Procedure: as §1, with “4B” for “4A”, “10 ng/ml VEGF” for “0.5 nM C-peptide (C-pep)”, “wortmannin.” for “wortmannin, and”
as §2, §3

HUVECs [3] = test: Transwell migration assay (HUVECs); format: cell-based, human; settings: 12 h; for chemotactic migration of endothelial cells: VEGF 10 ng/ml
Procedure: HUVECs were isolated from the human umbilical cord vein according to a well known process, and cells from passages 3 to 6 were used in the following experiments. Cells were inoculated into M199 culture media (supplemented with 20% FBS, 3 ng/ml bFGF, 5 U/ml heparin, 100 U/ml penicillin, and 100 μg/ml streptomycin) in 2% gelatin-coated coverslips, dishes, or plates, and grown at 37° C. in a humidified 5% CO2 incubator.
For experiments, cells were serum starved for 6 h by incubation in low-serum medium (M199 supplemented as above, but with only 1% FBS), and treated for a suitable time with 10 ng/ml VEGF in the presence or absence of various concentrations of C-peptide.
(§4) Angiogenesis is accompanied by endothelial cell migration and capillary-like network formation. To evaluate the ability of C-peptide to induce angiogenesis by examining whether C-peptide stimulates endothelial cell migration, the chemotactic motility of HUVECs and NIH3T3 cells were assayed using TRANSWELL® Permeable Supports (Costar, Corning, N.Y.).
(§5) In detail, the lower surface of the filters was coated with 5 μl of 2% gelatin. Low-serum media containing VEGF, FGF-2 or C-peptide were placed in the lower wells. HUVECs or NIH3T3 cells were seeded at a density of 1×10^5 cells per 200 μl of the low-serum medium in each of the upper wells, and incubated at 37° C. for 12 h. Cells were fixed with 100% methanol for 15 min, stained with hematoxylin and eosin, and dried. The average number of migrated cells in three randomly chosen fields of view per insert was taken to quantify the extent of migration using a fluorescence inverted microscope (Olympus).

NIH3T3 cells [4] = test: Transwell migration assay (NIH3T3 fibroblasts); format: cell-based; settings: 12 h; for chemotactic migration of fibroblast cells: FGF-2 1 ng/ml
Procedure: NIH3T3 fibroblasts obtained from ATCC (American Type Culture Collection) were grown in a DMEM medium supplemented with 10% calf serum, 100 U/ml penicillin, and 100 μg/ml streptomycin.
NIH3T3 cells were serum starved for 12 hrs in a low-serum medium (DMEM supplemented as above, but with only 0.1% calf serum).
as §4, §5
To elucidate the role of C-peptide in the migration of chemotactic fibroblast cells, NIH3T3 cells were treated with C-peptide for 12 h.

HUVECs [5] = test: Wound healing (scratch) assay (HUVECs); format: cell-based, human; settings: 24 h, C-peptide 0.5 nM, VEGF 10 ng/ml, p<0.01
Procedure: (§6) HUVECs and NIH3T3 cells were cultured on 6-well culture plates coated with gelatin. After being obtained, confluent cell layers were starved with low-serum media for 6 h, stained with 1 μM calcein-AM for 30 min, and wounded with a plastic scraper. Low-serum media and cell debris were removed, followed by replenishing the cell culture with 2 ml of low-serum media containing VEGF or C-peptide. Cells were then incubated at 37° C. for 24 h. Migrated cells was counted from images obtained using a confocal microscope (FV-300, Olympus).

NIH3T3 cells [6] = test: Wound healing (scratch) assay (NIH3T3 fibroblasts); format: cell-based; settings: NIH3T3, 24 h; C-peptide 0.5 nM, FGF-2 1 ng/ml; p<0.01
Procedure: as §6
C-peptide-induced cell migration was further investigated by the wound-healing assay. […] FGF-2 also stimulated chemotactic migration and wound healing in fibroblast cells (p<0.01; FIG. 6).

HUVECs [7] = test: Tube formation assay on Matrigel; format: cell-based, human; settings: 24 to 30 h; for formation of capillary-like networks (tube formation): VEGF 10 ng/ml
Procedure: To examine whether C-peptide can activate angiogenesis in vitro, a tube formation assay was conducted in a Matrigel layer using HUVECs.
as §2

[8] = In vivo Matrigel plug assay; settings: mice, s.c. 0.5 ml Matrigel with 5 nM C-peptide or 100 ng/ml VEGF, 7 days, compared with control
Procedure: (§7) Male C57BL/6 mice, six weeks old, were purchased from Nara Biotech (Seoul, Korea). The mice were maintained in temperature-controlled clean racks with a 12-h light/dark cycle. All experiments were performed in accordance with the guidelines of the Institutional Animal Care and Use Ethics Committee of Kangwon National University.
A matrigel plug assay was used to examine whether C-peptide can induce angiogenesis in vivo. In this regard, in vivo Matrigel plug assays were performed according to a method known in the art.
Briefly, mice were injected subcutaneously with 0.5 ml of Matrigel containing 100 ng/ml VEGF or 5 nM C-peptide, and 10 U heparin. After 7 days, the Matrigel plugs were removed from the subcutaneous region, and photographed using a camera (Sony, Japan).

ERK1/2 = ERK1/2 phosphorylation by Western blot in HUVECs; format: cell-based, human; settings: for ERK1/2 phosphorylation: 0.5 nM C-peptide or 10 ng/ml VEGF, time-dependent
Procedure: (§8) Since the activation of ERK1/2 and Akt is critical for the induction of cell migration and tube formation, an examination was made of the effect of C-peptide on ERK1/2 and AKT phosphorylation in HUVECs.
(§9) Phosphorylation of ERK1/2 and Akt was determined by Western blot analyses. Briefly, HUVECs were scraped off with ice-cold lysis buffer (50 mM Tris-HCl, pH 7.5, 1% Triton X-100, 150 mM NaCl, 1 mM EDTA, 0.1 mM PMSF, 10 μg/mL aprotinin, and 10 μg/mL leupeptin) and centrifuged at 18,000 g for 10 min at 4° C. The resulting cell lysates were separated by SDS-PAGE and transferred to polyvinylidene fluoride membranes.
(§10) Protein bands were visualized by exposure to X-ray films and a chemiluminescent substrate (Pierce, Rockford, Ill.). Levels of protein phosphorylation were normalized using the total amount of the proteins, and are expressed relative to unstimulated control levels (CON) in FIGS. 3A and 3B.

Akt = Akt phosphorylation by Western blot in HUVECs; format: cell-based, human; settings: for Akt phosphorylation: 0.5 nM C-peptide or 10 ng/ml VEGF, time-dependent
Procedure: as §8, §9, §10

NO = test: Intracellular NO production (DAF-FM DA, confocal microscopy) in HUVECs; format: cell-based, human; settings: 2 h, 0.5 nM C-peptide (p<0.05) or 10 ng/ml VEGF (p<0.01)
Procedure: Since phosphorylation of Akt increases NO production by VEGF, which is the important factor mediating angiogenesis, an examination was made to see whether C-peptide can stimulate NO production. For this, intracellular NO levels were measured using DAF-FM DA (diaminofluorescein-FM diacetate, Molecular Probes, Eugene, Oreg.) according to a method known in the art.
Briefly, HUVECs were treated with VEGF or C-peptide in phenol red-free low-serum media for indicated times and incubated with 2 μM DAF-FM DA for the final 1 h. Thereafter, the cells were washed with low-serum media before confocal microscropy. Levels of intracellular NO were determined by comparing the fluorescence intensities of treated cells with those of untreated control cells and expressing them as fold differences.

[9] = Cutaneous wound healing in streptozotocin-induced diabetic mice; format: in vivo
Procedure: as §7
Diabetic mice were generated by single intraperitoneal injection of a 100 mM citrate buffer (pH 4.5) containing streptozotocin in (150 mg/kg body weight). After injection, mice were supplied overnight with 10% sucrose to prevent sudden hypoglycemic shock. Sufficient hyperglycemia was observed two days after injection, as measured for blood glucose by the Accu-Check Active blood glucose monitor (Roch Diagnostics, Germany) and for glucosurea by Uriscan (TD Diagnostics, Young-In, Korea). After 1 week, mice with non-fasting blood glucose levels greater than 16 mM, polyuria, and glucosuria were defined diabetic and used for experiment. […]
The dorsal skin of the vertebral column was shaved with Veet cream before creating a wound. Full-thickness skin wounds, 4 mm in diameter, were created on the dorsal surface of the hind limbs with a biopsy punch, and closure was monitored with a digital camera. Open wound size was measured by tracing the wound margin using vernier calipers at regular intervals of two days, and monitored with a digital camera. […]

[10] = Hair follicle regeneration and blood vessel formation around wound (whole-mount PECAM-1 immunostaining); format: in vivo; settings: diabetic mice + C-peptide vs diabetic mice, 14 days after wounding
Procedure: The effect of C-peptide on the regeneration of hair follicles and the formation of blood vessels was observed by whole-mount immunostaining. In this regard, 14 days after wounding, mice were sacrificed, and the dorsal skin was removed for observation of hair follicles and blood vessels. Skin tissues from all the dead mice were excised using a scissor in order to avoid damaging its healing edge, fixed immediately in 4% paraformaldehyde in PBS overnight, and stored overnight in methanol at −20° C. For immunohistochemistry, tissue samples were blocked with 2% BSA in 0.1% TritonX-100 in TBS, and incubated with goat-polyclonal platelet endothelial cell adhesion molecule-I antibody for 2 d, followed by probing with Alexa-546-conjugated rabbit anti-goat IgG and then confocal microscopy.

| Compound | inhibition of C-peptide-stimulated tube formation (HUVECs [1]) | effect on VEGF-induced tube formation (HUVECs [2]) | chemotactic migration of endothelial cells (HUVECs [3]) | chemotactic migration of fibroblast cells (NIH3T3 cells [4]) | cell migration to the wounded area (HUVECs [5]) | cell migration to the wounded area (fibroblasts) (NIH3T3 cells [6]) | formation of capillary-like networks (tube formation) (HUVECs [7]) | new blood vessel formation in Matrigel plug [8] | ERK1/2 phosphorylation (ERK1/2) | Akt phosphorylation (Akt) | level of intracellular NO (NO) | also measured |
| --- | --- | --- | --- | --- | --- | --- | --- | --- | --- | --- | --- | --- |
| COC(=O)[C@@H](N)CCCNC(=N)N[N+](=O)[O-] [L-NAME, L-NG-nitroarginine methyl ester] | dose-dependent inhibition | prevented | – | – | – | – | – | – | – | – | – | – |
| COc1cccc(-c2cc(=O)c3ccccc3o2)c1N [PD98059] | inhibited | prevented | – | – | – | – | – | – | – | – | – | concentration of maximal inhibition of C-peptide-stimulated tube formation (HUVECs [1]): 10 µM |
| C-peptide | – | – | dose-dependent increase | dose-dependent increase | significantly stimulated | significantly stimulated | stimulated | significantly higher induction | increased | induced | significantly elevated | concentration of maximal effect on chemotactic migration of endothelial cells (HUVECs [3]): 0.5 nM; concentration of maximal effect on chemotactic migration of fibroblast cells (NIH3T3 cells [4]): 1 nM; concentration of maximal effect on formation of capillary-like networks (HUVECs [7]): 0.5 nM; ERK1/2 activation maintained until (ERK1/2; 0.5 nM C-peptide): 60 min; time of maximal stimulation of ERK1/2 phosphorylation (ERK1/2; 0.5 nM C-peptide): 15 min; time of maximal effect on Akt phosphorylation (Akt; 0.5 nM C-peptide): 15 min; wound area versus normal mice ([9]; STZ-diabetic mice, C-peptide 35 pmol/kg/min s.c. osmotic pump, 4 mm wound, 4 and 10 days after skin injury): no significant differences; wound closure compared with diabetic mice ([9]; diabetic mice + C-peptide vs diabetic mice): accelerated; regeneration (number) of hair follicles around wound [10]: significant increase; also recorded: increased; formation (number) of blood vessels around wound ([10]; PECAM-1 staining): significant increase; also recorded: increased |
| FGF-2: growth factor used as comparator for fibroblast migration [reference compound] | – | – | – | stimulated | – | stimulated | – | – | – | – | – | – |
| vascular endothelial growth factor [VEGF, reference compound] | – | – | stimulated | – | stimulated | – | induced | similar | induced | induced | higher level | – |
